# Source: US20070010484A1, “Method for treating or inhibiting the effects of injuries or diseases that result in neuronal degeneration and method for promoting neurogenesis” (YEDA RESEARCH AND DEVELOPMENT CO. LTD., priority 2003, published 2007)
# Experiments:
# [1] = test system: Organotypic hippocampal slice cultures (OHSC); assay: Organotypic hippocampal slice cultures, propidium iodide staining; format: cell-based; details: rat OHSCs, 2.5 μg/ml or 25 μg/ml, 24 h
# Procedure: Organotypic hippocampal slice cultures (OHSC): OHSC were prepared as described (Franklin and Paxinos, 1997) from rats brains (Lewis aged 8-10 days) CSPG-DSs were added to the OHSCs for 24 h. Propidium iodide (5 μg/ml; Sigma) was then added to the medium for 30 min. The brain slices were examined under a Zeiss laser-scanning confocal microscope (LSM510) or a Zeiss Axioplane 100 fluorescence light microscope.
# [2] = test system: retinal ganglion cells (RGCs); assay: Experimental autoimmune uveitis (EAU), RGC survival; format: in vivo; details: R16-immunized Lewis rats, i.p. on days 3, 6, 9, 12 and 17; counted 3 weeks after immunization; mean±SD
# Procedure: Induction of experimental autoimmune uveitis. To induce experimental autoimmune uveitis (EAU), Lewis rats were immunized with R16 (30 μg), a peptide derived from an ocular antigen IRBP emulsified in CFA containing 2.5 mg/ml M. tuberculosis. A total volume of 100 μl was injected s.c. into each rat at the root of the tail. Rats were then divided into three groups. On days 3, 6, 9, 12 and 17 after immunization the rats in the first group were injected i.p. with CSPG-DS (15 μg/rat), and rats in the second group were injected i.p. with methylprednisolone (MP. 30 mg/kg; Solu-Medrol, 125 mg/ml, Pharmacia & Upjohn, Puurs, Belgium). Rats in third group were left untreated.
# human T cells [3] = assay: T-cell adhesion to fibronectin in presence of SDF-1α; format: cell-based; details: 2 h pretreatment prior to SDF-1α, FN-coated plates, relative to untreated T cells
# Procedure: Human T cells. T cells from the peripheral blood of healthy donors were isolated by negative selection using a RosetteSep™ antibody cocktail containing mabs against CD16, CD19, CD36, and CD56 (StemCell Technologies, Vancouver, BC). After incubation with the cocktail for 20 min at room temperature, blood samples were diluted in PBS with 2% fetal bovine serum, loaded on a Ficoll column (ICN Biomedical, Aurora, Ohio), and centrifuged at 1200× g for 20 min at room temperature. The cells were removed from the Ficoll column, washed, and cultured in RPMI containing antibiotics and 10% heat-inactivated FCS. T-cell adhesion assays. Adhesion of T cells to FN was assayed as described (Ariel et al., 1998). Briefly, flat-bottomed microtiter well plates were precoated with CSPG or FN (10 μg/ml) and the remaining binding sites were blocked with 1% BSA. […]-labeled T cells were resuspended in RPMI medium supplemented with 1% HEPES buffer and 0.1% BSA (adhesion medium). After preincubation 2 h with CSPG-DS at the indicated concentrations, the T cells were incubated (30 min, 37° C., humidified atmosphere of 7% CO2 in air) with SDF-1α and then added to the wells. […] Adherent cells were lysed with lysis buffer (1 M NaOH, 0.1% Triton X-100 in H2O), removed, and counted with a γ-counter (Packard, Downers Grove, Ill.).
# SOCS-3 = assay: Western blot of SOCS-3 in T cells; format: cell-based, human; details: T cells pretreated with CSPG-DS, relative to untreated T cells
# Procedure: Western blot analysis of T-cell nuclear extracts. Purified T cells (5×10^6) were preincubated for 2 h with different concentrations of CSPG-DS. The cells were then replated at the same CSPG-DS concentration on 24-well plates pre-coated for 24 h with anti-CD3 mAb. The T cells were lysed in 10 mM HEPES, 1.5 mM MgCl2, 1 mM dithiothreitol, 1 mM PMSF, and 0.5% Nonidet P-40 (buffer A). The lysates were incubated on ice for 10 min and centrifuged at 2000 rpm for 10 min at 4° C. The supernatants (cytoplasmic extracts) were transferred and the pellets (nuclei) were suspended in buffer containing 30 mM HEPES, 450 mM NaCl, 25% glycerol, 0.5 mM EDTA, 6 mM dithiothreitol, 12 mM MgCl2 1 mM PMSF, 10 μg/ml leupeptin, 10 μg/ml pepstatin, and 1% phosphatase inhibitor cocktail (buffer B), and the suspension was incubated on ice for 30 min. The lysates were cleared by centrifugation (30 min, 14×10^3 rpm, 4° C.), and the resulting supernatants were analyzed for protein content. Sample buffer was added, the mixture was boiled, and the samples containing equal amounts of proteins were separated on 10% SDS-PAGE gel and transferred to nitrocellulose membranes. […]
# IL-4 and IL-13 = assay: RT-PCR of IL-4 and IL-13 mRNA in activated T cells; format: cell-based, human; details: 2 h pretreatment, anti-CD3 activation 3 h; similar after 6 or 12 h
# Procedure: RNA purification, RT-PCR, and CDNA synthesis. After pretreatment with the indicated concentrations of CSPG-DS for 2 h, […], lysed with TRI reagent (MRC, Cincinnati, Ohio), and total cellular RNA was purified from lysates using the RNeasy kit (Qiagen, Hilden, Germany) according to the manufacturer's instructions. RNA was converted to cDNA using SuperScript II (Promega, Madison, Wis.), as recommended by the manufacturer. The expression of specific mRNAs was assayed by RT-PCR, using the messageScreen™ Human Th1/Th2 Cytokine Set 1 Multiplex PCR® kits (BioSource International, Camarillo, Calif.), according to the manufacturer's instructions.
# human T cells [4] = format: cell-based
# Procedure: T-cell apoptosis: T cells (2×10^6 cells/ml) were incubated for 2 h with the indicated concentrations of CSPG-DS in RPMI medium containing 10% FCS, and then plated on 24-well plates (non-tissue-culture grade) precoated with anti-CD3 mAb (1 μg/ml; overnight) and cultured for 72 h. The percentage of cells undergoing apoptosis was determined using the annexin V-detection assay (Bender MedSystem, San Bruno, Calif.). The cells were incubated for 10 min in the dark at room temperature in 200 μl of buffer containing FITC-conjugated human annexin V ([…]; Bender MedSystem, Propidium iodide (10 μl) was added to each sample, and the percentage of cells undergoing apoptosis was analyzed by FACS® at 525 nm using CELLQuest Software. Cells that stained positively for annexin V and negatively for propidium iodide corresponded to the apoptotic cells.
smiles,measurement,setting,value
"CC(=O)N[C@H]1C(O)O[C@H](COS(=O)(=O)O)[C@H](O)[C@@H]1O[C@@H]1OC(C(=O)O)=C[C@H](O)[C@H]1O (stereo partly drawn) [CSPG-DS, 2-acetoamido-2-deoxy-3-O-(β-D-gluco-4-enepyranosyluronic acid)-6-O-sulfo-D-galactose]",neuronal loss (propidium iodide staining),[1],significantly reduced
same,RGC loss relative to normal rats,[2],24±9%
same,T-cell adhesion,human T cells [3],significantly reduced
same,SOCS-3 level,SOCS-3,increase
same,mRNA levels of Th2-associated cytokines IL-4 and IL-13,IL-4 and IL-13,not affected
same,viability of the T cells (apoptosis),human T cells [4],did not significantly affect
